Data as given in ChEMBL document CHEMBL5346874, “New antiplasmodial 4-amino-thieno[3,2-d]pyrimidines with improved intestinal permeability and microsomal stability” (Eur J Med Chem, 2023).
pEC50, pIC50: −log10 of the molar value.

Tests used:
[1] = (§1) Cytotoxicity against cynomolgus monkey Primary hepatocyte assessed as cell viability; type: toxicity, cell-based, Macaca fascicularis; conditions: primary hepatocytes
[2] = test system: Plasmodium berghei; test: Antimalarial activity against hepatic stage of Plasmodium berghei sporozoites GFP ANKA incubated for 3 hrs followed by replacement with fresh media for every 24 hrs by immunostaining analysis; type: functional, organism-based
[3] = Selectivity index, ratio of CC50 for against Macaca fascicularis Primary hepatocyte to EC50 for hepatic stage of Plasmodium berghei sporozoites GFP ANKA; type: toxicity; conditions: cynomolgus monkey, primary hepatocytes; read-out: Ratio CC50/EC50
[4] = test system: Plasmodium falciparum; test: Antiplasmodial activity against blood stage Plasmodium falciparum K1 assessed as reduction in parasite growth incubated for 72 hrs by SYBR Green I fluorescence based method; type: functional, organism-based
[5] = Metabolic stability in CD-1 mouse liver microsomes assessed as intrinsic clearance at pH 7.4 measured upto 40 mins in presence of NADP; type: ADME, Microsome; conditions: read-out: CLH
[6] = Solubility of the compound in PBS buffer at 1 mg incubated for 10 mins by HPLC analysis; type: physicochemical
[7] = Chromatographic hydrophobicity index, log D of the compound at pH 7.4 by HPLC analysis; type: physicochemical
[8] = Metabolic stability in CD-1 mouse liver microsomes assessed as half life at pH 7.4 measured upto 40 mins in presence of NADP; type: ADME, Microsome
[9] = Effective permeability of compound at pH 7.4 incubated for 4 hrs by PAMPA-GIT assay; type: ADME; conditions: read-out: Peff
[10] = test system: Hepatocyte; test: as §1; type: toxicity, cell-based, Macaca fascicularis; conditions: hepatocytes
[11] = Effective permeability of compound at pH 6.0 incubated for 4 hrs by PAMPA-GIT assay; type: ADME; conditions: read-out: Peff
[12] = Effective permeability of compound at pH 5 incubated for 4 hrs by PAMPA-GIT assay; type: ADME; conditions: read-out: Peff
[13] = target: Voltage-gated inwardly rectifying potassium channel KCNH2 (Homo sapiens, UniProt Q12809); test: Inhibition of human ERG incubated for 4 hrs by fluorescence polarization assay; type: toxicity
[14] = Plasmodium falciparum, K1, 72 h

Chain of Voltage-gated inwardly rectifying potassium channel KCNH2 (Q12809 whole entry): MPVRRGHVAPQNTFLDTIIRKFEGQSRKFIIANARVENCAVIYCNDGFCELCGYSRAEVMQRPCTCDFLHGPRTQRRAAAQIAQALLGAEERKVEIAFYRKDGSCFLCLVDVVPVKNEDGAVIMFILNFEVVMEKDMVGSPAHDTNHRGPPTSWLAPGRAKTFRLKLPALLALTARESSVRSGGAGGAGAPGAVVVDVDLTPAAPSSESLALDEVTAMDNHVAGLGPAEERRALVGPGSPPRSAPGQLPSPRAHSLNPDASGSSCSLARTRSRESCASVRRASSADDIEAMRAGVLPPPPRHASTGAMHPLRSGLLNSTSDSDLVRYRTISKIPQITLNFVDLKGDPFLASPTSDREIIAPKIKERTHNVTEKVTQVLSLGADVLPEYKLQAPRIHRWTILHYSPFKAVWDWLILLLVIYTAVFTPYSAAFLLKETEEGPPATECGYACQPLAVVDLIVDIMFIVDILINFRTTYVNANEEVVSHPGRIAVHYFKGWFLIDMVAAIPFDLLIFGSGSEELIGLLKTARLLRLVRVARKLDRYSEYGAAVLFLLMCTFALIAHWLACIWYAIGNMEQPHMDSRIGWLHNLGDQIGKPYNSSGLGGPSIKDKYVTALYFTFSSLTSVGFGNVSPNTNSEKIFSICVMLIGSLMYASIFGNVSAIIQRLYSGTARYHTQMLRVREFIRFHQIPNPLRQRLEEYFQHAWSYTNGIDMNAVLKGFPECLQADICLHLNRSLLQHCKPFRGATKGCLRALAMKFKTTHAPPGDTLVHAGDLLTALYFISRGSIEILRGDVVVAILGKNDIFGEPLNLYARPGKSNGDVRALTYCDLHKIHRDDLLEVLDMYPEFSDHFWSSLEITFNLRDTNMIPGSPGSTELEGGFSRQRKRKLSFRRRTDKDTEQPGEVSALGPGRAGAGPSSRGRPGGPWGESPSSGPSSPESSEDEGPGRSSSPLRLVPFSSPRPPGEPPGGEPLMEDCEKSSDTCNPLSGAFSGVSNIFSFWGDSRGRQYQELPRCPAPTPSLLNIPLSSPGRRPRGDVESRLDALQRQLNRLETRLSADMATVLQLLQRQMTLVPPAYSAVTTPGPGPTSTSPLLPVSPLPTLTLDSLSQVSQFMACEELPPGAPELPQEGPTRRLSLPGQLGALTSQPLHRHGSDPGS

SMILES	CC50 [1]	pEC50 ([2]; Plasmodium berghei, GFP ANKA)	selectivity ratio [3]	pEC50 [4, 14]	other results
Cc1ccc(-c2cc3nc(NC(C)(C)C)nc(N4CCC(NCc5ccc([N+](=O)[O-])cc5)CC4)c3s2)cc1	15.8 µM	5.14	2.2	6.15	–
Cc1ccc(-c2cc3nc(NC(C)(C)C)nc(N4CCC4)c3s2)cc1	25.8 µM	4.82	1.7	6.15	–
Cc1ccc(-c2cc3nc(NC(C)(C)C)[nH]c(=O)c3s2)cc1.Cl	–	–	–	–	microsomal CLint [5]: 240 µL/min/mg; solubility at 10 min [6]: 7.92 µM; chromatographic logD [7]: 4.1; half-life [8]: 11 min; Papp at 4 h [9]: 0.46 ×10⁻⁶ cm/s
Cc1ccc(CNC2CCN(c3nc(NC(C)(C)C)nc4cc(-c5ccc(C)cc5)sc34)CC2)cc1	35.5 µM	4.81	2.3	6.15	–
Cc1ccc(-c2cc3nc(NC(C)(C)C)nc(NCCCN(C)C)c3s2)cc1.Cl.Cl	–	–	–	–	microsomal CLint [5]: 33 µL/min/mg; CC50 [10]: 35.5 µM; Papp at 4 h [11]: 47.8 ×10⁻⁶ cm/s; solubility at 10 min [6]: 1990 µM; pEC50 [2]: 4.84; chromatographic logD [7]: 4.29; half-life [8]: > 40 min; Papp at 4 h [12]: 36.2 ×10⁻⁶ cm/s; pIC50 [13]: < 4.00; Papp at 4 h [9]: 67.3 ×10⁻⁶ cm/s; pEC50 [4]: 6.70
C[C@H]1c2cccc(O)c2C(=O)C2=C(O)[C@]3(O)C(=O)C(C(N)=O)=C(O)[C@@H](N(C)C)[C@@H]3[C@@H](O)[C@@H]21 [DOXYCYCLINE]	–	–	–	5.30	–
CCN(CC)CCNc1nc(NC(C)(C)C)nc2cc(-c3ccc(C)cc3)sc12.Cl.Cl	–	–	–	–	microsomal CLint [5]: 63 µL/min/mg; CC50 [10]: 59.1 µM; Papp at 4 h [11]: 52.1 ×10⁻⁶ cm/s; solubility at 10 min [6]: 1140 µM; pEC50 [2]: 4.84; chromatographic logD [7]: 4.81; half-life [8]: 37 min; Papp at 4 h [12]: 51.2 ×10⁻⁶ cm/s; pIC50 [13]: 5.97; Papp at 4 h [9]: 73.9 ×10⁻⁶ cm/s
Cc1ccc(-c2cc3nc(NC(C)(C)C)nc(N4CCOCC4)c3s2)cc1	–	–	–	5.80	–
CCN(CC)CCCNc1nc(NC(C)(C)C)nc2cc(-c3ccc(C)cc3)sc12	25.8 µM	4.94	2.2	6.70	–
CCN(CC)CCCNc1nc(NC(C)(C)C)nc2cc(-c3ccc(C)cc3)sc12.Cl.Cl	–	–	–	–	microsomal CLint [5]: 61 µL/min/mg; CC50 [10]: 27.6 µM; Papp at 4 h [11]: 46.6 ×10⁻⁶ cm/s; solubility at 10 min [6]: 1400 µM; pEC50 [2]: 4.91; chromatographic logD [7]: 4.23; half-life [8]: 37 min; Papp at 4 h [12]: 48.9 ×10⁻⁶ cm/s; pIC50 [13]: 5.85; Papp at 4 h [9]: 63.1 ×10⁻⁶ cm/s
Cc1ccc(-c2cc3nc(NC(C)(C)C)nc(N4CCSCC4)c3s2)cc1	–	–	–	5.31	–
Cc1ccc(-c2cc3nc(NC(C)(C)C)nc(NC4CCC4)c3s2)cc1	8.8 µM	5.19	1.3	6.05	–
COc1ccc(CNC2CCN(c3nc(NC(C)(C)C)nc4cc(-c5ccc(C)cc5)sc34)CC2)cc1	28.6 µM	4.85	2	6.30	–
CCN(CC)CCNc1nc(NC(C)(C)C)nc2cc(-c3ccc(C)cc3)sc12	32.6 µM	4.84	2.2	6.52	–
Cc1ccc(-c2cc3nc(NC(C)(C)C)nc(N4CCCCC4)c3s2)cc1	–	–	–	5.92	–
Cc1ccc(-c2cc3nc(NC(C)(C)C)nc(NC4CCCC4)c3s2)cc1	–	–	–	5.89	–
Cc1ccc(-c2cc3nc(NC(C)(C)C)nc(N4CCC(NCc5ccc(Cl)cc5)CC4)c3s2)cc1	36.1 µM	4.85	2.5	6.00	–
Cc1ccc(-c2cc3nc(NC(C)(C)C)nc(N4CCNCC4)c3s2)cc1	–	–	–	5.80	–

SMILES	CC50 [1]	pEC50 ([2]; Plasmodium berghei, GFP ANKA)	selectivity ratio [3]	pEC50 [4, 14]	other results
Cc1ccc(-c2cc3nc(NC(C)(C)C)nc(NC4CC4)c3s2)cc1	–	–	–	5.96	–
Cc1ccc(-c2cc3nc(NC(C)(C)C)nc(N4CCN(C)CC4)c3s2)cc1	–	–	–	5.92	–
Cc1ccc(-c2cc3nc(NC(C)(C)C)nc(NCCCN(C)C)c3s2)cc1	–	4.82	> 6.5	6.52	CC50 [10]: > 100 µM
Cc1ccc(-c2cc3nc(NC(C)(C)C)nc(N4CCC(NCc5ccccc5)CC4)c3s2)cc1	43.6 µM	4.79	2.7	6.15	–
Cc1ccc(-c2cc3nc(NC(C)(C)C)nc(N4CCCC4)c3s2)cc1	17.5 µM	4.84	1.2	6.05	–
Cc1ccc(-c2cc3nc(NC(C)(C)C)nc(NCCN(C)C)c3s2)cc1.Cl.Cl	–	–	–	–	microsomal CLint [5]: 64 µL/min/mg; CC50 [10]: 32.5 µM; Papp at 4 h [11]: 41.1 ×10⁻⁶ cm/s; solubility at 10 min [6]: 1640 µM; pEC50 [2]: 4.85; chromatographic logD [7]: 4.5; half-life [8]: 37 min; Papp at 4 h [12]: 43 ×10⁻⁶ cm/s; pIC50 [13]: 5.47; Papp at 4 h [9]: 64.9 ×10⁻⁶ cm/s; pEC50 [4]: 6.40
CCN(CC)CCCC(C)Nc1ccnc2cc(Cl)ccc12 (stereo not given) [CHLOROQUINE]	–	–	–	6.10	–
Cc1ccc(-c2cc3nc(NC(C)(C)C)nc(N4CCC(NCc5cccc(C(F)(F)F)c5)CC4)c3s2)cc1	–	–	–	5.89	–
Cc1ccc(-c2cc3nc(NC(C)(C)C)nc(NCCN(C)C)c3s2)cc1	–	4.86	1	6.52	CC50 [10]: 14 µM
Cc1ccc(-c2cc3nc(NC(C)(C)C)nc(NC4CCCCC4)c3s2)cc1	–	–	–	5.60	–
Cc1ccc(CSc2cnc(NC(C)(C)C)nc2N2CCC(NCc3cccc(Cl)c3)CC2)cc1	–	–	–	5.92	–
Cc1ccc(-c2cc3nc(NC(C)(C)C)nc(N4CCC(C)CC4)c3s2)cc1	52.5 µM	4.45	1.5	6.15	–
Cc1ccc(-c2cc3nc(NC(C)(C)C)[nH]c(=O)c3s2)cc1	> 200 µM	4.61	> 8.2	6.70	–
Cc1ccc(-c2cc3nc(NC(C)(C)C)nc(N4CCC(N)CC4)c3s2)cc1	31.6 µM	4.50	1	6.00	–
Cc1ccc(-c2cc3nc(NC(C)(C)C)nc(N4CCC(NCc5ccc(C(F)(F)F)cc5)CC4)c3s2)cc1	–	–	–	5.77	–
Cc1ccc(-c2cc3nc(NC(C)(C)C)nc(N4CCC(NC(=O)OC(C)(C)C)CC4)c3s2)cc1	–	–	–	5.68	–
Cc1ccc(-c2cc3nc(NC(C)(C)C)nc(N4CCC(NCc5ccc(Br)cc5)CC4)c3s2)cc1	20.7 µM	4.88	1.6	6.15	–
